Assay results from ChEMBL document CHEMBL3393036, “Tetra-substituted pyridinylimidazoles as dual inhibitors of p38α mitogen-activated protein kinase and c-Jun N-terminal kinase 3 for potential treatment of neurodegenerative diseases” (J Med Chem, 2015).

How the values were obtained:
[1] = target: Mitogen-activated protein kinase 10 (Homo sapiens, UniProt P53779); assay: Inhibition of JNK3 (unknown origin) assessed as phosphorylation of ATF-2 by ELISA
[2] = organism: Homo sapiens; assay: Selectivity ratio of IC50 for JNK3 (unknown origin) to IC50 for p38alpha (unknown origin)
[3] = target: Tyrosine-protein kinase ABL1 (Homo sapiens) (UniProt P00519); assay: Inhibition of ABL1 (unknown origin) at 5.5 uM by Caliper Mobility Shift Assay
Sequence of Tyrosine-protein kinase ABL1 (Homo sapiens) (P00519 whole entry): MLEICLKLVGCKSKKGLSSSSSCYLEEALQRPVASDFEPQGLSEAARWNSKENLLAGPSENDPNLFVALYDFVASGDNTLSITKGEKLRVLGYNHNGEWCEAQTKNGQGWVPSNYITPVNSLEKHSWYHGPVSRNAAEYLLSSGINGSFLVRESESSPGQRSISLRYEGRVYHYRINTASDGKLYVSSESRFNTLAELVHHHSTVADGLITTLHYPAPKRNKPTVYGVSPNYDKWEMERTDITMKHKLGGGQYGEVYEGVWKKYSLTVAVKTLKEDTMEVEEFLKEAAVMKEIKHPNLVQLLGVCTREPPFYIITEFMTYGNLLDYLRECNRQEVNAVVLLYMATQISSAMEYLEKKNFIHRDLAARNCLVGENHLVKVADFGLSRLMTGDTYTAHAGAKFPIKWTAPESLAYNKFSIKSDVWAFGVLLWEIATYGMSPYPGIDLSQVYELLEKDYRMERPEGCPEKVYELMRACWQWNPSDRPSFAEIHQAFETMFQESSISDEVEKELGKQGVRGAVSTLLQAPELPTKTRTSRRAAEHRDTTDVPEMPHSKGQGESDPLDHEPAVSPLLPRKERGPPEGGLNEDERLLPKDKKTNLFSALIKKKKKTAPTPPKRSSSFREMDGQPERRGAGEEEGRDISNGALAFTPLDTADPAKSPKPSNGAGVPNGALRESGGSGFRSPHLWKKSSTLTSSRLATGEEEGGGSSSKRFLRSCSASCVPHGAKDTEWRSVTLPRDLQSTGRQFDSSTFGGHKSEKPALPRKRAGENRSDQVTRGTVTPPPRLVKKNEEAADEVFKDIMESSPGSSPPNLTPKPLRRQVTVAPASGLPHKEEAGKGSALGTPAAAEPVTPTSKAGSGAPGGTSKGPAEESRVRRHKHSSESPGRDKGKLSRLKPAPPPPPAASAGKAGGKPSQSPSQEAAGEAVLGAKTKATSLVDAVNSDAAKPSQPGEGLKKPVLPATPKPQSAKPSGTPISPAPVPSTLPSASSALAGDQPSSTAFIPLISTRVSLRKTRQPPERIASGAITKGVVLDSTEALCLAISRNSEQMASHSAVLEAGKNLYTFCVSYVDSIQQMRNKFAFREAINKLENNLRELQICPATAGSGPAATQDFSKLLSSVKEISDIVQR

[4] = target: T1, Activin receptor type-1 (Homo sapiens) (UniProt Q04771); assay: Inhibition of ACVR1 (ALK2) (unknown origin) at 5.5 uM by Caliper Mobility Shift Assay
T1 sequence (whole entry): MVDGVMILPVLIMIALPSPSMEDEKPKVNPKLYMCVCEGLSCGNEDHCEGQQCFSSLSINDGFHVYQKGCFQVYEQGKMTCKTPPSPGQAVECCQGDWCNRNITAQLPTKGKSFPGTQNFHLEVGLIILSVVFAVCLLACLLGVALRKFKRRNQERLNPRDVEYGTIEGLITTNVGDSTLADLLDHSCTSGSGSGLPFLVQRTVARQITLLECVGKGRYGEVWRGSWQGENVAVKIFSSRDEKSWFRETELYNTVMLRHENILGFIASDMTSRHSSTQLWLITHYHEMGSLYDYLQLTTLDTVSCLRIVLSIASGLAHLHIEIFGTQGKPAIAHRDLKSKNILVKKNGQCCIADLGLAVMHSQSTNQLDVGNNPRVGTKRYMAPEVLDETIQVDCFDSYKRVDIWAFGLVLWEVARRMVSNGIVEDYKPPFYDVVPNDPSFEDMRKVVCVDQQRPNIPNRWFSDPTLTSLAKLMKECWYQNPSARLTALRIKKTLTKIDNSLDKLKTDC

[5] = target: Calcium/calmodulin-dependent protein kinase type II subunit beta (Homo sapiens) (UniProt Q13554); assay: Inhibition of CAMK2 (unknown origin) at 5.5 uM by Caliper Mobility Shift Assay
[6] = target: Tyrosine-protein kinase CSK (Homo sapiens) (UniProt P41240); assay: Inhibition of CSK (unknown origin) at 5.5 uM by Caliper Mobility Shift Assay
[7] = target: Receptor tyrosine-protein kinase erbB-4 (Homo sapiens) (UniProt Q15303); assay: Inhibition of ERBB4 (HER4) (unknown origin) at 5.5 uM by Caliper Mobility Shift Assay
Sequence of Receptor tyrosine-protein kinase erbB-4 (Homo sapiens) (Q15303 whole entry): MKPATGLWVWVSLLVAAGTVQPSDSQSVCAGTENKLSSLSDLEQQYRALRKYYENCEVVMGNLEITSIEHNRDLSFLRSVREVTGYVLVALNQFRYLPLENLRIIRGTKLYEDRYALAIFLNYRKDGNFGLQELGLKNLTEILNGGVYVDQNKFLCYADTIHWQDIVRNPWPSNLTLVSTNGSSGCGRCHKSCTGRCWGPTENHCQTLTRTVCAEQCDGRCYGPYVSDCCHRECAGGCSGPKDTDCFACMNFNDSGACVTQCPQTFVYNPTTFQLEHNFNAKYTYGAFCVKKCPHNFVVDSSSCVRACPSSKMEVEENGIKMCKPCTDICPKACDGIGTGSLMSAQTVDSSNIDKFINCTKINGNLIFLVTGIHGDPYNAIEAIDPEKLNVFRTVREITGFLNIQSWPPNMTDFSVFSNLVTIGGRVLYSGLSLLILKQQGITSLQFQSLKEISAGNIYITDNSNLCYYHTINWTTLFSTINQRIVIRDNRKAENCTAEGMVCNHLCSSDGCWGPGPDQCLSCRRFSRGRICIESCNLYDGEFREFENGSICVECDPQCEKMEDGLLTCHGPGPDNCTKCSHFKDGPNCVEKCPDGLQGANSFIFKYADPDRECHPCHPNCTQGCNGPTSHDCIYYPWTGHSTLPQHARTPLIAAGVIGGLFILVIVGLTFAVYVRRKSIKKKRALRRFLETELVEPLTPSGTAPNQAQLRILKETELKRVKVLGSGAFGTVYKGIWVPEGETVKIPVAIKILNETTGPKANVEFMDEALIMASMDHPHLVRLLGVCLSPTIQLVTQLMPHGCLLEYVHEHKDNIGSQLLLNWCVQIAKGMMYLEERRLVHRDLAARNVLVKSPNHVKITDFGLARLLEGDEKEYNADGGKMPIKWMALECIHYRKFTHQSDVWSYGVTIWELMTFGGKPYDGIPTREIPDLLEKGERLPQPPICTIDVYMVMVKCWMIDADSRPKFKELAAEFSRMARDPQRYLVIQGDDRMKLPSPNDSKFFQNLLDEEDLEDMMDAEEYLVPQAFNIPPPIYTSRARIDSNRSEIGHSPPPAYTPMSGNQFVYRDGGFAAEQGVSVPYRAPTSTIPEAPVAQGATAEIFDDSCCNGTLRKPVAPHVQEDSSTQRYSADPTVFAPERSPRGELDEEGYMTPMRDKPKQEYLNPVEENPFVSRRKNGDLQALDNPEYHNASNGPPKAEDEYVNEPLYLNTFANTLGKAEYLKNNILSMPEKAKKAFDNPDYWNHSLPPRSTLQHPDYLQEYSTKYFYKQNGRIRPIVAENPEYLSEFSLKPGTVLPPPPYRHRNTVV

[8] = target: Fibroblast growth factor receptor 4 (Homo sapiens) (UniProt P22455); assay: Inhibition of FGFR4 (unknown origin) at 5.5 uM by Caliper Mobility Shift Assay
Sequence of Fibroblast growth factor receptor 4 (Homo sapiens) (P22455 22-802 limits assumed): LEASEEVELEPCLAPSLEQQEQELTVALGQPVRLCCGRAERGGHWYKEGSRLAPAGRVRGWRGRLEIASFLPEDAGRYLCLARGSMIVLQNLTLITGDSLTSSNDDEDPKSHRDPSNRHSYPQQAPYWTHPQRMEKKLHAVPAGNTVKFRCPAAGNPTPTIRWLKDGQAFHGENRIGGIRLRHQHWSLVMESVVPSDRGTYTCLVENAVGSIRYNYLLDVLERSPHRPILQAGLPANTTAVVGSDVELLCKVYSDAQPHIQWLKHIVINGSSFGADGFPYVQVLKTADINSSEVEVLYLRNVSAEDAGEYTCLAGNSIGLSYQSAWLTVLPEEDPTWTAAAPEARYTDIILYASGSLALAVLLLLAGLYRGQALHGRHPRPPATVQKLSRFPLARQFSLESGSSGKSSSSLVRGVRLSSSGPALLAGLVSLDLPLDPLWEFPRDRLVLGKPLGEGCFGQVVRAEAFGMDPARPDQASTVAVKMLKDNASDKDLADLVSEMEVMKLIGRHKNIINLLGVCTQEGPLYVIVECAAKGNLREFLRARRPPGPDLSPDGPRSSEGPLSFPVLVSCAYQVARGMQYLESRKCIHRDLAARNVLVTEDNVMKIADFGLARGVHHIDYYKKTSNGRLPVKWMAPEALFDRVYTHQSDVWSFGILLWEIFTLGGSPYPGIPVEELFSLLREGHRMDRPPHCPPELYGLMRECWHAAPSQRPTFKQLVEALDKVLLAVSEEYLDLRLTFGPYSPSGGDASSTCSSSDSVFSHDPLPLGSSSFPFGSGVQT

[9] = target: Mitogen-activated protein kinase 8 (Homo sapiens) (UniProt P45983); assay: Inhibition of JNK1 (unknown origin) at 5.5 uM by Caliper Mobility Shift Assay
[10] = target: Tyrosine-protein kinase Lck (Homo sapiens) (UniProt P06239); assay: Inhibition of LCK (unknown origin) at 5.5 uM by Caliper Mobility Shift Assay
Sequence of Tyrosine-protein kinase Lck (Homo sapiens) (P06239 2-509 limits assumed): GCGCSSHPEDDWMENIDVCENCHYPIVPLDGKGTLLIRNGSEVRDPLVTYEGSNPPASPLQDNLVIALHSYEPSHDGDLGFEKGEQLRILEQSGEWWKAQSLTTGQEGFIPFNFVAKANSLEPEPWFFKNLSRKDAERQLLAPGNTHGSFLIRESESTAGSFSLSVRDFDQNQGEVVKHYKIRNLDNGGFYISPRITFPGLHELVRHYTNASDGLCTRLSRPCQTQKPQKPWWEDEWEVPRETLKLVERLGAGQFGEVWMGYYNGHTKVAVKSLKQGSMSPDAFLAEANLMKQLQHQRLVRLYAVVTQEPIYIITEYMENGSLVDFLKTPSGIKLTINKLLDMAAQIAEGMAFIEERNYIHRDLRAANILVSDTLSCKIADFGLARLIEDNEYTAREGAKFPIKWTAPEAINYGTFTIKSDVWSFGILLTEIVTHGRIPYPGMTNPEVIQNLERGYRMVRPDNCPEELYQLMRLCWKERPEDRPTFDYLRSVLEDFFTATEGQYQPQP

[11] = target: T2, TGF-beta-activated kinase 1 and MAP3K7-binding protein 1 (Homo sapiens) (UniProt Q15750); assay: Inhibition of MAP3K7-TAB1 (unknown origin) at 5.5 uM by Caliper Mobility Shift Assay
T2 sequence (whole entry): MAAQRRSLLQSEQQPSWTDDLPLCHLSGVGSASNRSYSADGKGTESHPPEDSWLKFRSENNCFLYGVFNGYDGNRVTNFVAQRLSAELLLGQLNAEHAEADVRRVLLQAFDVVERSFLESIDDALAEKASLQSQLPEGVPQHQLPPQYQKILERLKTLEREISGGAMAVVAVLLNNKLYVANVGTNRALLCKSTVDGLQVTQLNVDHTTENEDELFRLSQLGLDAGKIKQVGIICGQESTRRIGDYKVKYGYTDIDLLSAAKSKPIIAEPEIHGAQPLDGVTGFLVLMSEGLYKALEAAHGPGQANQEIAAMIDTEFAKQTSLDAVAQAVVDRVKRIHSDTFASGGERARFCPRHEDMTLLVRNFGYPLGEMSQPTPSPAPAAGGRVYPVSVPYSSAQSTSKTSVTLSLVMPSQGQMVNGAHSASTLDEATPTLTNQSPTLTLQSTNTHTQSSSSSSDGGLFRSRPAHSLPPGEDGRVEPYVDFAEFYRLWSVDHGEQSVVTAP

[12] = target: MAP kinase-interacting serine/threonine-protein kinase 1 (Homo sapiens) (UniProt Q9BUB5); assay: Inhibition of MKNK1 (unknown origin) at 5.5 uM by Caliper Mobility Shift Assay
Sequence of MAP kinase-interacting serine/threonine-protein kinase 1 (Homo sapiens) (Q9BUB5 whole entry, looked up): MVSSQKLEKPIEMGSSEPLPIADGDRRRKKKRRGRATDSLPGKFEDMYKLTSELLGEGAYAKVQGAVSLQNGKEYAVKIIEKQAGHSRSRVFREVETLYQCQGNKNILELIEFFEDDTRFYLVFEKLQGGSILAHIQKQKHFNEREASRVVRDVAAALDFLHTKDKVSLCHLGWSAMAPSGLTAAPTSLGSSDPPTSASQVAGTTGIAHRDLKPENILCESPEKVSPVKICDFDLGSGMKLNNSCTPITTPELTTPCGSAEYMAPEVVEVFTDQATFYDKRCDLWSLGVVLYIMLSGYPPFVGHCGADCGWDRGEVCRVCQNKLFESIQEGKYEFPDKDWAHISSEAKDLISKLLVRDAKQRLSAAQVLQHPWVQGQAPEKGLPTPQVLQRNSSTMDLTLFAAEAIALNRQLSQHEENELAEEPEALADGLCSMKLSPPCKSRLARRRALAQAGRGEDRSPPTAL

[13] = target: T3, Serine/threonine-protein kinase 17B (Homo sapiens) (UniProt O94768); assay: Inhibition of STK17B (unknown origin) at 5.5 uM by Caliper Mobility Shift Assay
T3 sequence (whole entry): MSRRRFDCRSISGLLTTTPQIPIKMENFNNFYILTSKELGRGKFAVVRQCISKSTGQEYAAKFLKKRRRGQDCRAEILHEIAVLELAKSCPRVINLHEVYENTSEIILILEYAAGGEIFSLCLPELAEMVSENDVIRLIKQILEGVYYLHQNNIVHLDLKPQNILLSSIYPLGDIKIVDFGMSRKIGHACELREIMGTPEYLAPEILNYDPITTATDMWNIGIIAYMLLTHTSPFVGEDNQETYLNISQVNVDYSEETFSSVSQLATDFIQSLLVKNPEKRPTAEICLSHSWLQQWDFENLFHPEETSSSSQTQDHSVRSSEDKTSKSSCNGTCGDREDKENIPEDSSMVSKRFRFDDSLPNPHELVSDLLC

[14] = target: Tyrosine-protein kinase SYK (Homo sapiens) (UniProt P43405); assay: Inhibition of SYK (unknown origin) at 5.5 uM by Caliper Mobility Shift Assay
[15] = target: T4, Tyrosine-protein kinase ZAP-70 (Homo sapiens) (UniProt P43403); assay: Inhibition of ZAP70 (unknown origin) at 5.5 uM by Caliper Mobility Shift Assay
T4 sequence (whole entry): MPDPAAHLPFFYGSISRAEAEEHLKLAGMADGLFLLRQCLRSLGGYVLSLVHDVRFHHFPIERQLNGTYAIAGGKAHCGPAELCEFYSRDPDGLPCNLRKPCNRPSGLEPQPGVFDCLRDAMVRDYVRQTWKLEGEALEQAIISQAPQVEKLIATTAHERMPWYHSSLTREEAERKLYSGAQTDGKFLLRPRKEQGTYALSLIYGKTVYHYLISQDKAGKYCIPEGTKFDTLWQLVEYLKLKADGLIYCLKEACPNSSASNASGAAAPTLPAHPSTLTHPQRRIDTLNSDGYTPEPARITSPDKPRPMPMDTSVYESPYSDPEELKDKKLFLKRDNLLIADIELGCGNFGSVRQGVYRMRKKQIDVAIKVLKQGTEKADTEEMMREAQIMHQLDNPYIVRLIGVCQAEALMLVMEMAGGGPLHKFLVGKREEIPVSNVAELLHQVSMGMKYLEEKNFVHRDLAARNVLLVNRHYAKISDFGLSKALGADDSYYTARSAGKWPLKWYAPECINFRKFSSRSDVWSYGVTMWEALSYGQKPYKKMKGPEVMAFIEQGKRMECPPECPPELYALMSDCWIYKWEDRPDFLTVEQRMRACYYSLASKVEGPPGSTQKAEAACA

Sequence of Mitogen-activated protein kinase 10 (P53779 whole entry): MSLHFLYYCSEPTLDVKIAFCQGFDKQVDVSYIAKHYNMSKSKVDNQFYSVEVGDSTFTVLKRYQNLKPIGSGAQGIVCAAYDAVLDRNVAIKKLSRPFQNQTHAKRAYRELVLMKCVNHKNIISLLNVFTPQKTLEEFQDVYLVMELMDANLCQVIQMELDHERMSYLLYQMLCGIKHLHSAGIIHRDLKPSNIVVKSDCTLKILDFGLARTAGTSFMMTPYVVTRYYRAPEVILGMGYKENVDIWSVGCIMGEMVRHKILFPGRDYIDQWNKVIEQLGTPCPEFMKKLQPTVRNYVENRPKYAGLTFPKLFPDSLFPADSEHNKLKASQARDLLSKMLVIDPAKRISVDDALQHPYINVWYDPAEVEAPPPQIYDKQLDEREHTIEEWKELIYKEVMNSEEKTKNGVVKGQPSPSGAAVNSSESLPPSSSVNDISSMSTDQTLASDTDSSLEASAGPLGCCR

Row | SMILES | IC50 [1] | Ratio IC50 [2] | inhibition [3] | inhibition [4] | inhibition [5] | inhibition [6] | inhibition [7] | inhibition [8] | inhibition [9] | inhibition [10] | inhibition [11] | inhibition [12] | inhibition [13] | inhibition [14] | inhibition [15]
1 | CC(=O)Nc1cc(-c2c(-c3ccc(F)cc3)nc(Sc3cccc(I)n3)n2C2CCCCC2)ccn1 | 1530 nM | 4.3 | < 50% | < 50% | < 50% | < 50% | < 50% | < 50% | < 50% | < 50% | < 50% | < 50% | < 50% | < 50% | < 50%
2 | CC(=O)Nc1cc(-c2c(-c3ccc(F)cc3)nc(S/C=C\C(=O)O)n2C2CCCCC2)ccn1 | 133 nM | 0.8 | < 50% | < 50% | < 50% | < 50% | < 50% | < 50% | < 50% | < 50% | < 50% | < 50% | < 50% | < 50% | < 50%
3 | COC(Cn1c(SC2CCC(C(=O)O)CC2O)nc(-c2ccc(F)cc2)c1-c1ccnc(NC(C)=O)c1)OC (stereo not given) | 2010 nM | 14.9 | < 50% | < 50% | < 50% | < 50% | < 50% | < 50% | < 50% | < 50% | < 50% | < 50% | < 50% | < 50% | < 50%

The next molecules have a lower IC50 [1] than those just listed; values first:

Row | IC50 [1] | Ratio IC50 [2] | inhibition [3] | inhibition [4] | inhibition [5] | inhibition [6] | inhibition [7] | inhibition [8] | inhibition [9] | inhibition [10] | inhibition [11] | inhibition [12] | inhibition [13] | inhibition [14] | inhibition [15] | SMILES
4 | 82 nM | 0.7 | < 50% | < 50% | < 50% | < 50% | < 50% | < 50% | < 50% | < 50% | < 50% | < 50% | < 50% | < 50% | < 50% | CC(=O)Nc1cc(-c2c(-c3ccc(F)cc3)nc(S/C=C\C(=O)O)n2C2CC2)ccn1
5 | 35 nM | 0.2 | < 50% | < 50% | < 50% | < 50% | < 50% | < 50% | < 50% | < 50% | < 50% | < 50% | < 50% | < 50% | < 50% | CC(=O)Nc1cc(-c2c(-c3ccc(F)cc3)nc(S/C=C\C(=O)O)n2CC2CCCO2)ccn1 (racemic)
